Laboratory results: patent EP0504290B1, “INHIBITORS OF PNEUMOCYSTIS CARINII DIHYDROFOLATE REDUCTASE” (CHIRON CORPORATION, priority 1989, dated 1991)
Like-named read-outs stand apart in the source and are kept apart here.

Experiments:
[1] = target: Pneumocystis carinii DHFR (Pneumocystis carinii, UniProt P16184); test: biochemical
recombinant human DHFR = target: T1, recombinant human DHFR (Homo sapiens, UniProt P00374); test: Inhibition of recombinant human DHFR activity by substituted phenyl triazines at 25 µM DHF; type: biochemical
T1 sequence (P00374 1-187): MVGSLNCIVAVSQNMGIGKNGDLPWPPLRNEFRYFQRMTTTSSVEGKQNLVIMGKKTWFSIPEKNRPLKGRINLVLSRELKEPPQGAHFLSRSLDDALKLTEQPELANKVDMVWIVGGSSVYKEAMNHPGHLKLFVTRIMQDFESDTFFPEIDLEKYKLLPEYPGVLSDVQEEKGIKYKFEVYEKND

P. carinii DHFR = P. carinii DHFR (Pneumocystis carinii, UniProt P16184); test: biochemical
Sequence of P. carinii DHFR (P16184 whole entry): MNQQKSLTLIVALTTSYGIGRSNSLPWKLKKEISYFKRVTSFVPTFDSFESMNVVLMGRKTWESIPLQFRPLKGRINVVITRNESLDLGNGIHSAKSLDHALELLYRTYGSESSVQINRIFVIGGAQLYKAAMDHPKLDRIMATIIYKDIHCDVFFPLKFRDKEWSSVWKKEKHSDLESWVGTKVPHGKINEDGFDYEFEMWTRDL

[2] = ratio of human DHFR Ki to P. carinii DHFR Ki

Sequence of Pneumocystis carinii DHFR (P16184 whole entry): as above

Structure (SMILES) | IC50 [1] | IC50 (recombinant human DHFR) | Selectivity, Ki (human)/Ki(Pc) [1, 2] | also measured
CC1(C)N=C(N)N=C(N)N1c1cccc(CNc2cc(C(N)=O)cc(C(N)=O)c2)c1 [3-CH2NHϕ, 3',5'(CONH2)2] | 1.07 µM | 2.8 µM |  | Selectivity, Ki (human)/Ki(Pc) [1]: 4.5
CC1(C)N=C(N)N=C(N)N1c1cccc(CNc2ccc(C#N)cc2)c1 [3-CH2NHϕ, 4'CN] | 0.6 µM | 0.52 µM | 1.5 | 
CC1(C)N=C(N)N=C(N)N1c1cccc(COc2ccc(Cl)c(Cl)c2Cl)c1 [3-CH2Oϕ, 2',3',4'Cl3] | 0.56 µM | 0.81 µM | 2.5 | 
CC1(C)N=C(N)N=C(N)N1c1cccc(COc2cccc(CO)c2)c1 [3-CH2Oϕ, 3'CH2OH] | 1.8 µM | 0.97 µM | 0.9 | 
CC(=O)Nc1cccc(OCc2cccc(N3C(N)=NC(N)=NC3(C)C)c2)c1 [3-CH2Oϕ, 3'NHAc] | 0.23 µM |  |  | 
COc1cccc(OCc2cccc(N3C(N)=NC(N)=NC3(C)C)c2)c1 [3-CH2Oϕ, 3'OCH3] | 0.55 µM | 0.36 µM | 1.1 | 
CC1(C)N=C(N)N=C(N)N1c1cccc(COc2cccc3ccccc23)c1 [3-CH20(a)Naphthyl] | 0.36 µM | 0.56 µM |  | Selectivity, Ki (human)/Ki(Pc) [1]: 2.6
Cc1cccc(OCc2cccc(N3C(N)=NC(N)=NC3(C)C)c2)c1 [3-CH20ϕ, 3'CH3] | 1.4 µM | 0.65 µM | 0.8 | 
CC1(C)N=C(N)N=C(N)N1c1cccc(COc2cccc(Cl)c2)c1 [3-CH20ϕ, 3'Cl] | 0.85 µM | 0.47 µM | 0.9 | 
CCCCCCOc1cccc(N2C(N)=NC(N)=NC2(C)C)c1 [3-O(CH2)5CH3] | 1.52 µM | 6.4 µM | 7.2 | 
CCCCCCCCCCCOc1cccc(N2C(N)=NC(N)=NC2(C)C)c1 [3-O(CH2)10CH3] | 1.33 µM | 8.8 µM | 11.3 | 
CCCCCCCCCCCCCCOc1cccc(N2C(N)=NC(N)=NC2(C)C)c1 [3-O(CH2)13CH3] | 23.6 µM | 31.6 µM | 2.3 | 
CC1(C)N=C(N)N=C(N)N1c1cccc(OCCOc2cccc(C(F)(F)F)c2)c1 [3-O(CH2)20ϕ, 3'CF3] | 1.6 µM |  |  | 
CC1(C)N=C(N)N=C(N)N1c1ccc(C(F)(F)F)cc1 [-CF3] |  |  |  | IC50 (P. carinii DHFR; 100 µM NADPH, 100 µM DHF, 1 nM P. carinii DHFR, 25 C, read-out: IC5O (100 µM DHF)): 25 µM; Ki (P. carinii DHFR; read-out: Ki): 0.0875 µM
Cc1ccc(N2C(N)=NC(N)=NC2(C)C)cc1 [-CH3] |  |  |  | IC50 (P. carinii DHFR): 30 µM; Ki (P. carinii DHFR): 0.105 µM
CC1(C)N=C(N)N=C(N)N1c1ccc([N+](=O)[O-])cc1 [-NO2] |  |  |  | IC50 (P. carinii DHFR): > 8330 µM; Ki (P. carinii DHFR): > 2.9 µM
COc1ccc(N2C(N)=NC(N)=NC2(C)C)cc1 [-OCH3] |  |  |  | IC50 (P. carinii DHFR): 90 µM; Ki (P. carinii DHFR): 0.315 µM
CC1(C)N=C(N)N=C(N)N1c1ccc(O)cc1 [-OH] |  |  |  | IC50 (P. carinii DHFR): 250 µM; Ki (P. carinii DHFR): 0.875 µM
CCOC(=O)c1cccc(N2C(N)=NC(N)=NC2(C)C)c1 [Substituent 3-CO2Et] | 166 µM | 114 µM | 1.2 | 
CC(=O)c1cccc(N2C(N)=NC(N)=NC2(C)C)c1 [Substituent 3-COCH3] |  | 21 µM |  | 
CC1(C)N=C(N)N=C(N)N1c1cccc([N+](=O)[O-])c1 [Substituent 3-NO2] | 9.5 µM | 2.76 µM | 0.7 | 
CC1(C)N=C(N)N=C(N)N1c1cccc(OCc2ccccc2)c1 [Substituent 3-OCH2ϕ] | 4.6 µM |  |  | 
CCOc1cccc(N2C(N)=NC(N)=NC2(C)C)c1 [Substituent 3-OEt] |  | 13.8 µM |  | 
CC1(C)N=C(N)N=C(N)N1c1ccc(Cl)cc1 [Substituent 4-Cl, 4,6-diamino-1-(p-chlorophenyl)1,2-dihydro-2,2-dimethyl-s-triazine, reference compound] | 7.5 µM |  |  | Ki [1]: 0.109 µM; times more tightly bound to human DHFR than to P. carinii DHFR (recombinant human DHFR; human DHFR versus P. carinii DHFR): ~2.5 times; IC50 (P. carinii DHFR): 20 µM; Ki (P. carinii DHFR): 0.07 µM
